The values that follow come from publication PMC2375326, “In vitro evaluation of amino acid prodrugs of novel antitumour 2-(4-amino-3-methylphenyl)benzothiazoles” (British Journal of Cancer, 2002).

The structures appear in SMILES notation.

For one series, the system named is M14. Nature of the series: NCI in vitro cytotoxicity assay (SRB), M14. It is filed as cell-based. The note with it: Homo sapiens, 48 h exposure, sulforhodamine B assay, mean graph, read-out: Log10 GI50 (M14) (converted). Here is the method:
(§1) Cell culture and drug application procedures have been described previously ([Boyd and Paull, 1995]). Briefly, cell lines were inoculated into a series of 96-well microtiter plates, with varied seeding densities depending on growth characteristics of each cell line. Following a 24 h drug free incubation, test agents were added at five 10-fold dilutions with a maximum concentration of 100 μM. Cellular protein levels were determined after 48 h drug exposure by sulphorhodamine B colorimetry.

The next series deals with UACC-62. Description: NCI in vitro cytotoxicity assay (SRB), UACC-62. Particulars: Homo sapiens, 48 h exposure, sulforhodamine B assay, mean graph, read-out: Log10 GI50 (UACC-62) (converted). It is filed as cell-based. Here is the method:
as §1

The test system of the next series is OVCAR-3. Description: NCI in vitro cytotoxicity assay (SRB), OVCAR-3. The class given is cell-based. The note with it: Homo sapiens, 48 h exposure, sulforhodamine B assay, mean graph, read-out: Log10 GI50 (OVCAR-3) (converted). The protocol:
as §1
Background: The SRB assay estimates cell density from bound dye.

In another series the test system is PC-3. Nature of the series: NCI in vitro cytotoxicity assay (SRB), PC-3. It is filed as cell-based. Particulars: Homo sapiens, 48 h exposure, sulforhodamine B assay, mean graph, read-out: Log10 GI50 (PC-3) (converted). Here is the method: as §1
In another series the test system is HS 578T. Description: NCI in vitro cytotoxicity assay (SRB), HS 578T. It is filed as cell-based. The note with it: Homo sapiens, 48 h exposure, sulforhodamine B assay, mean graph, read-out: Log10 GI50 (HS 578T) (converted). The protocol: as §1
For another series, the system named is RPMI-8226. Description: NCI in vitro cytotoxicity assay (SRB), RPMI-8226. It is filed as cell-based. Particulars: Homo sapiens, 48 h exposure, sulforhodamine B assay, mean graph, read-out: Log10 GI50 (RPMI-8226) (converted). Here is the method:
as §1

In a further series the test system is HT29. Description: NCI in vitro cytotoxicity assay (SRB), HT29. It is filed as cell-based. The note with it: Homo sapiens, HT-29; 48 h exposure, sulforhodamine B assay, mean graph; read-out: Log10 GI50 (HT29) (converted). The protocol: as §1
In series [1] the test system is NCI in vitro panel of human derived cancer cell lines. Nature of the series: NCI in vitro cytotoxicity assay (SRB), whole panel mean graph. It is filed as cell-based. The note with it: average GI50 over the panel, 48 h exposure, sulforhodamine B assay, read-out: Log10 GI50 (MG_MID) (converted). Here is the method: as §1
For another series, the system named is HCC-2998. Description: NCI in vitro cytotoxicity assay (SRB), HCC-2998. The class given is cell-based. The note with it: Homo sapiens, 48 h exposure, sulforhodamine B assay, mean graph, read-out: Log10 GI50 (HCC-2998) (converted). The protocol:
as §1

Another series deals with HOP-62. Nature of the series: NCI in vitro cytotoxicity assay (SRB), HOP-62. It is filed as cell-based. Particulars: Homo sapiens, 48 h exposure, sulforhodamine B assay, mean graph, read-out: Log10 GI50 (HOP-62) (converted). The protocol: as §1
In series [2] the test system is CYP1A1 protein expression in IGROV-1 cells. Nature of the series: Western blot of CYP1A1 protein, IGROV-1 lysates. It is filed as cell-based, human. The note with it: 10 nM to 10 μM, 24 h, result not shown. The protocol:
Whole cell lysates were prepared for examination of CYP1A1 protein expression from untreated MCF-7, IGROV-1 and HCT 116 cultures and following exposure of cells to compounds 1, 2, 2a, 2b, 3, 3a, 3b, 4, 4a and 4b. Following protein determination (n=3, [Bradford, 1976]) and addition of sample buffer, samples were boiled at 95°C for 5 min and solubilised proteins (50 μg) were separated by sodium dodecyl sulphate (SDS) polyacrylamide gel (10%) electrophoresis. Proteins were electroblotted to polyvinylidene difluoride (PVDF) membranes and probed for CYP1A1 protein with polyclonal antiserum specific for human CYP1A1/1A2 (Gentest Corporation). Secondary antibody was conjugated to alkaline phosphatase, and CYP1A1 was detected following brief (<10 min) incubation with bromochloroindolyl phosphate and nitro-blue tetrazolium in alkaline phosphatase buffer. Molecular weight markers and a positive control of recombinant CYP1A1 (Gentest Corporation), included in all blots, confirmed detection of 52 kDa CYP1A1 protein.
In general terms: In western blotting, separated proteins are transferred to a membrane and probed.

The test system of series [3] is breast and ovarian xenografts. Also noted: method as in Bradshaw et al, 2002. The note with it: in vivo; ref Bradshaw et al, 2002; cited from earlier work.
The subject of another series is SW-620. Nature of the series: NCI in vitro cytotoxicity assay (SRB), SW-620. The note with it: Homo sapiens, 48 h exposure, sulforhodamine B assay, mean graph, read-out: Log10 GI50 (SW-620) (converted). The class given is cell-based. The protocol:
as §1

A further series has as its system HCT-116. Nature of the series: NCI in vitro cytotoxicity assay (SRB), HCT-116. It is filed as cell-based. The note with it: Homo sapiens, 48 h exposure, sulforhodamine B assay, mean graph, read-out: Log10 GI50 (HCT-116) (converted). The protocol: as §1
In a further series the test system is CAKI-1. Description: NCI in vitro cytotoxicity assay (SRB), CAKI-1. It is filed as cell-based. Particulars: Homo sapiens, 48 h exposure, sulforhodamine B assay, mean graph, read-out: Log10 GI50 (CAKI-1) (converted). The protocol:
as §1

The test system of a further series is EKVX. Nature of the series: NCI in vitro cytotoxicity assay (SRB), EKVX. The note with it: Homo sapiens, 48 h exposure, sulforhodamine B assay, mean graph, read-out: Log10 GI50 (EKVX) (converted). It is filed as cell-based. The protocol: as §1
The test system of another series is NCI-H522. Description: NCI in vitro cytotoxicity assay (SRB), NCI-H522. The class given is cell-based. Particulars: Homo sapiens, 48 h exposure, sulforhodamine B assay, mean graph, read-out: Log10 GI50 (NCI-H522) (converted). Here is the method: as §1
The subject of another series is MDA-N. Nature of the series: NCI in vitro cytotoxicity assay (SRB), MDA-N. The class given is cell-based. Particulars: Homo sapiens, 48 h exposure, sulforhodamine B assay, mean graph, read-out: Log10 GI50 (MDA-N) (converted). The protocol: as §1
The subject of the next series is SF-295. Nature of the series: NCI in vitro cytotoxicity assay (SRB), SF-295. It is filed as cell-based. Particulars: Homo sapiens, 48 h exposure, sulforhodamine B assay, mean graph, read-out: Log10 GI50 (SF-295) (converted). The protocol:
as §1

As to `Cc1cc(-c2nc3cc(F)ccc3s2)ccc1NC(=O)[C@@H](N)CCCCN` [Compound 2b], the GI50 is 2.14 µM with M14; 14.1 µM in the series with UACC-62; 10.7 µM in the series on OVCAR-3; 12.6 µM in the series on PC-3; 3.63 µM with HS 578T; 2.45 µM with RPMI-8226. In addition, the GI50 in the series on HT29 was 3.24 µM; in [1], 2.51 µM; in the series with HCC-2998, 0.741 µM; in the series with HOP-62, 6.31 µM; in the series on SW-620, 3.63 µM; with HCT-116, 2.88 µM. Besides, in series [2], the “CYP1A1 protein expression (Western blot)” value is “clearly observed”. Further, in series [3], the “Growth of breast and ovarian xenografts” value is “suppresses significantly”.
As to `Cc1cc(-c2nc3cc(F)ccc3s2)ccc1N` [Compound 2, 2-(4-Amino-3-methylphenyl)-5-fluorobenzothiazole], the GI50 is 33.9 µM in the series with M14; 25.7 µM in the series with CAKI-1; 57.5 µM with UACC-62; 24.5 µM in the series with OVCAR-3; 23.4 µM in the series on PC-3; 46.8 µM in the series on HS 578T. Moreover, the GI50 is 1.41 µM in the series with EKVX; 63.1 µM in the series with HT29; 11 µM in series [1]; 28.8 µM in the series on NCI-H522; 18.6 µM in the series with HOP-62; over 100 µM in the series on MDA-N. In addition, the GI50 was over 100 µM with SW-620, 15.8 µM in the series with HCT-116 and 20.9 µM in the series with SF-295.

By GI50 is commonly meant the concentration giving 50% growth inhibition.
